Read-outs that look alike come from different tables or passages of the source. Where only a bound is given, the exact number is not on record here.

The target of experiment [1] is T1, human AR (Homo sapiens, UniProt P10275).
T1 sequence (P10275 1-920): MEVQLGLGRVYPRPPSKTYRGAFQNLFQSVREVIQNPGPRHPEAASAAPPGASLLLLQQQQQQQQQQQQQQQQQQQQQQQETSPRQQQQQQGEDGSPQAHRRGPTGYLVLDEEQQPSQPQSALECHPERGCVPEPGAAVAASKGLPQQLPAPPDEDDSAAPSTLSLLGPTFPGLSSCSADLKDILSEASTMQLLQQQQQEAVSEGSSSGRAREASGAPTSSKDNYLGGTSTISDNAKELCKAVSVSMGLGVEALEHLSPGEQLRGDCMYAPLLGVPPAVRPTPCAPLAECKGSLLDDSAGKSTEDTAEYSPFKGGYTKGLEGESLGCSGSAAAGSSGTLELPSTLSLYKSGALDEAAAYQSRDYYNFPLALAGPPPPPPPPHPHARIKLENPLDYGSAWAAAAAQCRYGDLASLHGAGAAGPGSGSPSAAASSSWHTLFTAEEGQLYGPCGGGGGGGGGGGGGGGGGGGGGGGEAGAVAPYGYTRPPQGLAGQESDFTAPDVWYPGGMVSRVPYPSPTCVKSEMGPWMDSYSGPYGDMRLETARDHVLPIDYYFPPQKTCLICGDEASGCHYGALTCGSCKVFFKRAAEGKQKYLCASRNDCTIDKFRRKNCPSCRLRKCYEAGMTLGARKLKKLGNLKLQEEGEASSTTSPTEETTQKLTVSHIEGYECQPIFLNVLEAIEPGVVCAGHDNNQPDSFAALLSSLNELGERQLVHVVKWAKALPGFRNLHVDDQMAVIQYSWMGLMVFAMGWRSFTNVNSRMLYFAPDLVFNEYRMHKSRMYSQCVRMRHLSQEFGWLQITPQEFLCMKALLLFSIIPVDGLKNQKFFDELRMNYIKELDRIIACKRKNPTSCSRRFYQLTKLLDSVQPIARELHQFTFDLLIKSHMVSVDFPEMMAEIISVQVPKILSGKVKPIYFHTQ
Kind of experiment: Co-transfection assay, AR antagonist, CV-1 cells (in presence of DHT). It is filed as cell-based. To be noted: for AR Antagonist CV-1 Cells Efficacy (%): percent maximal inhibition, DHT at EC50. The source says: (§1) The reporter plasmid, MTV-LUC, contains the cDNA for firefly luciferase (LUC) under control of themouse mammary tumor virus (MTV) long terminal repeat, a conditional promoter containing an androgen response element. See e.g., Berger et al. supra. In addition, pRS-β-Gal, coding for constitutive expression of E. coli β-galactosidase (β-Gal), was included as an internal control for evaluation of transfection efficiency and compound toxicity.
(§2) Three to four replicates were used for each sample.
(§3) After 40 hours, the cells were washed with PBS, lysed with a Triton X-100-based buffer and assayed for LUC and β-Gal activities using a luminometer or spectrophotometer, respectively. For each replicate, the normalized response (NR) was calculated as:
(§4) where β-Gal rate=β-Ga·1×10^−5/β-Gal incubation time.

Experiment [2] has as its target T1, human AR. Kind of experiment: Co-transfection assay, AR agonist, CV-1 cells. To be noted: for AR Agonist CV-1 Cells Efficacy (%): percent maximal response relative to reference agonist DHT. It is filed as cell-based.
Text: as §1, §2, §3, §4

The target in experiment [3] is T1, human AR. Kind of experiment: AR whole cell competitive binding assay (3H-DHT), COS-1 cells. How it is done: AR Binding: For the whole cell binding assay, COS-1 cells in 96-well microtiter plates containing DMEM-10% FBS were transfected as described above with the following plasmid DNA: pRShAR (2 ng/well), pRS-β-Gal (50 ng/well) and pGEM (48 ng/well). Six hours after transfection, media was removed, the cells were washed with PBS and fresh media was added. The next day, the media was changed to DMEM-serum free to remove any endogenous ligand that might be complexed with the receptor in the cells.
Three replicates were used for each sample. […] The remaining media was removed, the cells were washed three times with PBS to remove unbound ligand, and cells were lysed with a Triton X-100-based buffer.
For the saturation analyses, the difference between the total binding and the nonspecific binding, normalized by the β-Gal rate, was defined as specific binding.
After correcting for non-specific binding, IC50 values were determined. […] The IC50 value was determined graphically from a log-logit plot of the data. The Ki values were determined by application of the Cheng-Prusoff equivuation to the IC50 values, the labeled ligand concentration and the Kd of the labeled ligand.

Usually EC50 stands for the concentration needed to bring the measured effect to its halfway point. Low values mean greater potency, high ones weaker potency. Broadly, the Ki is a dissociation constant, usually derived from enzyme kinetics or from competition with a known ligand. For `CCC1CCNc2cc3nc(Cl)cc(C(F)(F)F)c3cc21` (racemic) [Compound 108, (R/S)-8-Chloro-4-ethyl-1,2,3,4-tetrahydro-6-trifluoromethyl-9-pyrido[3,2-g]guinoline], on human AR [1], the IC50 was 50 ± 27 nM and the “AR Antagonist CV-1 Cells Efficacy (%)” value turned out to be 28 ± 8%. At human AR [2], a half-maximal effect (EC50) was put at 73 ± 12 nM and the “AR Agonist CV-1 Cells Efficacy (%)” value was 36 ± 5%. Besides, the affinity on human AR [3] corresponds to a Ki of 81 ± 13 nM.
In the case of `CCC1CCNc2cc3nc(Cl)c(F)c(C(F)(F)F)c3cc21` (racemic) [Compound 109, (R/S)-8-Chloro-4-ethyl-7-fluoro-1,2,3,4-tetrahydro-6-trifluoromethyl-9-pyrido[3,2-g]guinoline], at human AR [1], the IC50 amounted to 39 ± 23 nM and the “AR Antagonist CV-1 Cells Efficacy (%)” value is 51 ± 9%. Further, at human AR [2], the EC50 stood at 89 ± 26 nM and the “AR Agonist CV-1 Cells Efficacy (%)” value was found to be 35 ± 12%. This molecule showed a Ki on human AR [3] of 119 ± 65 nM.
As to `CCC1CCNc2cc3nc(F)cc(C(F)(F)F)c3cc21` (racemic) [Compound 116, (R/S)-4-Ethyl-8-fluoro-1,2,3,4-tetrahydro-6-trifluoromethyl-9-pyrido[3,2-g]quinoline], on human AR [1], the “AR Antagonist CV-1 Cells Efficacy (%)” value was determined as 0%. In addition, at human AR [2], the response was half-maximal at 37 ± 9 nM (EC50) and the “AR Agonist CV-1 Cells Efficacy (%)” value worked out at 60 ± 4%. Also, the Ki at human AR [3] worked out at 5 nM.
The matching figures for `CCC1CCNc2cc3nc(Br)cc(C(F)(F)F)c3cc21` (racemic) [Compound 121, (R/S)-8-Bromo-4-ethyl-1,2,3,4-tetrahydro-6-trifluoromethyl-9-pyrido[3,2-g]quinoline]: 8 ± 12%, 22 ± 14 nM, 53 ± 15% and 55 nM.
Consider `CCC1CCNc2cc3nccc(C(F)(F)F)c3cc21` (racemic) [Compound 125, (R/S)-4-Ethyl-1,2,3,4-tetrahydro-6-trifluoromethyl-9-pyrido[3,2-g]quinoline], for which, on human AR [1], the IC50 was 56 ± 17 nM and the “AR Antagonist CV-1 Cells Efficacy (%)” value is recorded as 93 ± 1%. The “AR Agonist CV-1 Cells Efficacy (%)” value at human AR [2] is given as 9 ± 7%. Besides, the affinity on human AR [3] corresponds to a Ki of 93 nM.
Take `CCC1CCNc2cc3nc(C#N)cc(C(F)(F)F)c3cc21` (racemic) [Compound 129, (R/S)-8-Cyano-4-ethyl-1,2,3,4-tetrahydro-6-trifluoromethyl-9-pyrido[3,2-g]quinoline]: at human AR [1], the IC50 amounted to 15 ± 5 nM and the “AR Antagonist CV-1 Cells Efficacy (%)” value came to 56 ± 25%. Further, the affinity on human AR [3], expressed as Ki, was 21 nM.
`CCC1CCN(C)c2cc3nc(C#N)cc(C(F)(F)F)c3cc21` (racemic) [Compound 130, (R/S)-8-Cyano-4-ethyl-1,2,3,4-tetrahydro-1-methyl-6-trifluoromethyl-9-pyrido[3,2-g]quinoline]: on human AR [1], the IC50 stood at 782 ± 546 nM and the “AR Antagonist CV-1 Cells Efficacy (%)” value is 89 ± 1%. The “AR Agonist CV-1 Cells Efficacy (%)” value on human AR [2] came out at 2%. The Ki at human AR [3] stood at 787 nM.
Taken in the same sequence, the figures for `CC1(C)CCc2cc3c(cc2N1)N(C(=O)c1ccccc1)C(C#N)C=C3C(F)(F)F` (racemic) [Compound 131, (R/S)-9-Benzoyl-8-cyano-1,2,3,4,8,9-hexahydro-2,2-dimethyl-6-trifluoromethyl-9-pyrido[3,2-g]quinoline] were 63 nM, 91%, 0% and greater than 1000 nM.
`Cc1ccc(C(=O)N2c3cc4c(cc3C(C(F)(F)F)=CC2C#N)CCC(C)(C)N4)cc1` (racemic) [Compound 132, (R/S)-8-Cyano-1,2,3,4,8,9-hexahydro-2,2-dimethyl-9-p-toluoyl-6-trifluoromethyl-9-pyrido[3,2-g]quinoline]: the “AR Antagonist CV-1 Cells Efficacy (%)” value on human AR [1] came to 89%. At human AR [1] (read-out: AR Antagonist CV-1 Cells Potency), the IC50 came out at 147 nM. The Ki on human AR [3] (COS-1 cells, 1 nM 3H-DHT, Cheng-Prusoff, read-out: AR Binding KI) amounted to 863 nM.
Turning to `C[S+]([O-])c1nc2cc3c(cc2c(C(F)(F)F)c1F)CCC(C)(C)N3` (racemic) [Compound 137, (R/S)-7-Fluoro-1,2,3,4-tetrahydro-2,2-dimethyl-6-trifluoromethyl-8-methylsulfinyl-9-pyrido[3,2-g]quinoline], at human AR [1], the IC50 amounted to 1340 nM and the “AR Antagonist CV-1 Cells Efficacy (%)” value is 84%. Also, the “AR Agonist CV-1 Cells Efficacy (%)” value at human AR [2] came to 10%. At human AR [3], this molecule had a Ki greater than 1000 nM.
`CCC1CCNc2cc3nc(SC)cc(C(F)(F)F)c3cc21` (racemic) [Compound 142, (R/S)-4-Ethyl-1,2,3,4-tetrahydro-8-methylthio-6-trifluoromethyl-9-pyrido[3,2-g]quinoline]: at human AR [1], the IC50 is 131 ± 64 nM and the “AR Antagonist CV-1 Cells Efficacy (%)” value came out at 60 ± 7%. Besides, at human AR [2], the EC50 came to 221 ± 108 nM and the “AR Agonist CV-1 Cells Efficacy (%)” value turned out to be 30 ± 12%. This molecule also registered an inhibition constant Ki on human AR [3] of 307 nM.
For the molecule `CCC1CCNc2cc3nc([S+](C)[O-])cc(C(F)(F)F)c3cc21` (racemic) [Compound 143, (R/S)-4-Ethyl-1,2,3,4-tetrahydro-8-methylsulfinyl-6-trifluoromethyl-9-pyrido[3.2-g]guinoline], on human AR [1], the IC50 came to 4690 nM and the “AR Antagonist CV-1 Cells Efficacy (%)” value was 59%. Moreover, on human AR [2], the concentration giving a half-maximal response (EC50) was 33 ± 3 nM and the “AR Agonist CV-1 Cells Efficacy (%)” value is recorded as 37 ± 9%. This molecule gave a Ki on human AR [3] of 34 nM.
`CCC1CCNc2cc3nc(C(F)(F)F)cc(C(F)(F)F)c3cc21` (racemic) [Compound 149, (R/S)-4-Ethyl-1,2,3,4-tetrahydro-6,8-di(trifluoromethyl)-9-pyrido[3,2-g]quinoline]: on human AR [1], the IC50 is 117 ± 31 nM. On human AR [3], this molecule gave a Ki of 301 nM.
With `Cc1c2c(cc3c(C(F)(F)F)c(F)c(Cl)nc13)C(C)CC(C)(C)N2` (stereo not drawn) [Compound 106, 8-Chloro-7-fluoro-1,2,3,4-tetrahydro-2,2,4,10-tetramethyl-6-trifluoro-methyl-9-pyrido[3,2-g]quinoline], on human AR [1], the IC50 is 550 ± 15 nM and the “AR Antagonist CV-1 Cells Efficacy (%)” value worked out at 77 ± 6%. Further, the “AR Agonist CV-1 Cells Efficacy (%)” value at human AR [2] turned out to be 4 ± 2%. The molecule further returned a Ki on human AR [3] greater than 1000 nM.
Regarding `CC1(C)CCc2cc3c(C(F)(F)F)c(F)c(Cl)nc3cc2N1` [Compound 107, 8-Chloro-7-fluoro-1,2,3,4-tetrahydro-2,2-dimethyl-6-trifluoromethyl-9-pyrido[3,2-g]quinoline], at human AR [1], the IC50 turned out to be 17 ± 3 nM and the “AR Antagonist CV-1 Cells Efficacy (%)” value is given as 61 ± 8%. For the same molecule, at human AR [2], the midpoint of the response, the EC50, lay at 1040 nM and the “AR Agonist CV-1 Cells Efficacy (%)” value was 29%. Further, the affinity at human AR [3], expressed as Ki, was 103 nM.
Turning to `CC1(C)CCc2cc3c(C(F)(F)F)c(F)c(F)nc3cc2N1` [Compound 113, 7,8-Difluoro-1,2,3,4-tetrahydro-2,2-dimethyl-6-trifluoromethyl-9-pyrido[3,2-g]quinoline], on human AR [1], the IC50 worked out at 500 nM and the “AR Antagonist CV-1 Cells Efficacy (%)” value came out at 37%. Moreover, the “AR Agonist CV-1 Cells Efficacy (%)” value on human AR [2] is listed as 12%. Also, at human AR [3], the inhibition constant Ki amounted to 152 nM.
For `Cc1c2c(cc3c(C(F)(F)F)c(F)c(F)nc13)C(C)CC(C)(C)N2` (stereo not drawn) [Compound 115, 7,8-Difluoro-1,2,3,4-tetrahydro-2,2,4,10-tetramethyl-6-trifluoromethyl-9-pyrido[3,2-g]quinoline], on human AR [1], the IC50 worked out at 1140 nM and the “AR Antagonist CV-1 Cells Efficacy (%)” value was determined as 26%. The “AR Agonist CV-1 Cells Efficacy (%)” value at human AR [2] amounted to 0%. This molecule returned a Ki on human AR [3] greater than 1000 nM.

(Values after patent publication US6667313B1, “8-substituted-6-triflouromethyl-9-pyrido [3,2-G] quinoline compounds as androgen receptor modulators” (Ligand Pharmaceuticals Inc., priority 1999, dated 2003).)
